Measured values: patent US20050075398A1, “Neuroprotectin D1 protects against cellular apoptosis, stroke damage, alzheimer's disease and retinal diseases” (priority 2003, published 2005)

Legend:
[1] = system: infarcted volume (stroke volume); experiment: Stroke volume by TTC staining after MCA-O; format: in vivo, mouse
Procedure: Assessment of stroke volume. Forty-eight hours after MCA-O, mice were killed, and brains were dissected and immersed in ice-cold saline. The dissected brains were embedded in agar blocks and sectioned into coronal slices 1 mm thick by a vibratome (Vibratome Co. St. Louis, Mo.). Sections were incubated at room temperature in a 3% buffered solution of 2,3,5,-triphenyltetrazolium chloride (TTC). Once color developed (10 to 15 min), sections were fixed in 10% buffered formalin, and kept at 4° C. until images were recorded by a camera (Cool-snap, Nikon) mounted to a dissecting microscope. In the digital images, total brain area and stroke areas were analyzed and calculated by Adobe Photoshop software. Serial sections were made for all animals. (Digital images not included).
To test for in vivo bioactivity of 10,17S-docosatriene (NPD1) in brain during focal ischemic stroke, Alzet mini-pumps were implanted into the third ventricle to deliver the lipid messenger over the 48 h reperfusion following 1 h of MCA-O. Brain coronal sections were incubated at room temperature in 3% buffered TTC (triphenyltetrazolium chloride) for approximately 10-15 min. The docosanoid 10,17S-docosatriene (NPD1) was infused (1 μg over 48 h by implanted Alzet mini-pumps). In photos, colorless areas indicated mitochondrial damage reflecting the inability to metabolize TTC. […]

[2] = system: polymorphonuclear leukocyte infiltration; experiment: Zymosan-induced peritonitis, leukocyte infiltration; format: in vivo, mouse; conditions: 100 ng i.v. bolus 1.5 min before Zymosan A; lavage at 2 h
Procedure: The inhibition of leukocyte infiltration in zymosan-induced peritonitis by 4,17S-diHDHA and 10,17S-docosatriene (NPD1) was tested. […] Peritonitis was induced in 6- to 8-week-old male FVB mice (Charles River Laboratories) by peritoneal injection of 1 mg Zymosan A. The compounds 4,17S- and 10,17S-diHDHA were injected by intravenous bolus injection, 1.5 minutes before Zymosan A treatment. Two hours after induction of peritonitis, rapid peritoneal lavages were collected, and cell type enumeration was performed.

TNFα gene expression = experiment: HGU133 GeneChip DNA array in HN cells: TNFα; format: cell-based, human; conditions: Aβ42 25 μM, DHA 50 nM or NPD1 50 nM, 18 h, nsc = no significant change
Bax = experiment: Western blot of Bax in ARPE-19 cells under TNFα/H2O2; format: cell-based, human; conditions: 50 nM; 800 μM H2O2 along with TNFα, 6 h
Procedure: Analysis of pro- and anti-apoptotic proteins in ARPE-19 cells: Bcl-2 family proteins were analyzed by Western-blot analysis. In brief, 20-μg equivalents of each cell extract were subjected to electrophoresis on a 8-16% gel (Promega, Madison, Wis.) at 125 volts for 2 h. The proteins were transferred to nitrocellulose membrane at 30 volts for 1 h at 4° C. The membranes were subjected to treatment with primary antibodies of Bcl-2, Bcl-xL, Bax, and Bad for 1 h at room temperature, and probed 30 min with secondary antibody, goat anti-rabbit Ig:HRPO and HRP-conjugated anti-biotin antibody. (BD Sciences—Pharminogen, San Diego, Calif.) Then proteins were evaluated using an ECL kit. (Amersham Biosciences Corp., Piscataway, N.J.)
Using the same TNFα/H2O2 concentrations, Bcl-2 proteins were assayed. Cells were grown for 72 h after plating, placed in serum-free medium for 1 h, then incubated with TNFα/H2O2 for 6 h. Protein expression and Western-blot analysis were performed as described in Example 13. Data in FIGS. 14A, 14B, 14C and 14D represent four independent experiments with triplicate samples in each case. Anti-apoptotic protein Bcl-xL was enhanced in ARPE-19 cells by TNFα/H2O2 (800 μM) (FIG. 14B, first bar), whereas Bcl-2 was not changed (FIG. 14A, first bar).

human COX-2 promoter = experiment: IL-1β-induced human COX-2 promoter-luciferase assay in ARPE-19 cells; format: cell-based; conditions: IL-1β 10 ng/ml 8 h, NPD1 0.05 to 100 nM, read-out: IC50, IL-1β induction of the COX-2 promoter
Procedure: Transfection of ARPE-19 cells with human COX-2 (830 bp): ARPE-19 cells growing in 12-well plates were transfected with 5 μg human COX-2-luciferase construct (830 bp) by FuGENE-6 (obtained from Drs. S. Prescott and D. Dixon, Vanderbilt University, Nashville, Tenn.). Four hours later, the medium containing FuGENE-6 was removed, fresh DMEM-F12 (10% FBS) was added, and the cells further incubated 8 h at 37° C. Transfected cells were serum-starved for 4 h and challenged with IL-1β (10 ng/ml) for 8 h with or without NPD1. NPD1 was added at concentrations from 0.05 to 100 nm. Eight hours later, cell homogenates were made, protein concentrations were adjusted, and luciferase assays were performed using 20 μg equivalent protein in Monolight 2010 for 20 seconds with luciferin as substrate, as described below.
Luciferase assay: The medium containing IL-1β and NPD1 was removed, and the cells were washed with 1 ml cold PBS. The cells were scraped and centrifuged 2500×g for 20 minutes at 4° C. The cell pellet was re-suspended in 500 μl of 2×luciferase assay buffer (ALL, 0.2 mM tricine, 2 mM DTT, 30 mM MgSO4 and 10 mM ATP). […] The relative light units were determined by using an ALL luminometer recording over a 20-second interval, as described in Bazan, N. G., Fletcher, B. S., Herschman, H. R. & Mukherjee, P. K. (1994) Proc. Natl. Acad. Sci. U.S.A. 91:5252-5256. […]

CC/C=C\C[C@H](O)\C=C/C=C/C=C/[C@H](O)C/C=C\C/C=C\CCC(=O)O [NPD1, 10,17S-docosatriene]
reduction of stroke volume ([1]; 1 μg over 48 h at 250 nl/h intracerebroventricular, after 48 h): 50%
focal infarcted volume, percentage of total volume ([1]; 1 μg over 48 h by Alzet mini-pump into third ventricle, 1 h MCA-O, 48 h reperfusion, vehicle about 30%): less than 15%
inhibition of leukocyte infiltration [2]: potent inhibition
TNFα gene expression, fold change over untreated controls (TNFα gene expression): nsc
decrease of the up regulation of Bax (Bax): 65%
IC50 (human COX-2 promoter): < 5 nM
